The values below are quoted from earlier work in US7563896B2, “Process of obtaining type II dehydroquinase enzyme inhibitors and precursors thereof” (Universidade de Santiago de Compostela, priority 2003, dated 2009).

One series addresses EPSP synthase. The note with it: sixth enzyme of the shikimic acid pathway, read-out: inhibition constant.

For `O=C(O)CNCP(=O)(O)O` [Glyphosphate], on EPSP synthase, the Ki was around 1000 nM. Further, the effectiveness against malaria result with malaria is listed as “effective”.
